From patent US20060252820A1, “Composition for oral administration containing alkylene dioxybenzene derivative” (priority 2003, published 2006)

Test: Conventional preparation of MKC-242 administered to a human
Format: in vivo
Settings: conventional preparation (tablet) administered to a human

symptoms recognized (depending on drug concentration in plasma, all slight): nausea, dizziness, orthostatic syncope
half-life (plasma, oral, read-out: half-life T1/2): 2 to 5 h
SMILES: Cl.c1ccc2c(c1)OC[C@H](CNCCCOc1ccc3c(c1)OCO3)O2 [MKC-242, 5-[3-[[(2S)-1,4-benzodioxan-2-ylmethyl]amino]propoxy]-1,3-benzodioxole hydrochloride]
